Assay results taken from patent US20260015350A1, “AZAQUINAZOLINE PAN-KRAS INHIBITORS” (Mirati Therapeutics, Inc., priority 2022, published 2026).

Experiments:
KRas^G12D = molecular target: T1, KRas^G12D (Homo sapiens, UniProt P01116, G12D); assay: KRas binding assay (TR-FRET tracer displacement), KRas G12D
T1 construct: Biotinylated KRas (corresponding to amino acids 1-169, produced at Accelegan Inc.); biotin (biotinylated); purchased Accelegan Inc

[1] = tested on: KRas-mediated phosphorylation of ERK in HCT116 cells; assay: Inhibition of KRas-mediated phosphorylation of ERK (Cisbio HTRF pERK), HCT116 cells; type: cell-based; details: Homo sapiens, HCT-116, HTRF pERK
In short: (§1)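 HTRF readout of phospho-ERK in cell lysates after 3 hrs of compound exposure. Dosing: 10 uM top, 3-fold steps, 10 doses, final DMSO 0.8%. Min control: 0.2 uM Trametinib. Lysis ran 40 mins at 4° C, and antibody detection 2 hrs at room temperature.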

KRas^G12R = molecular target: T2, KRas^G12R (Homo sapiens, UniProt P01116, G12R); assay: KRas binding assay (TR-FRET tracer displacement), KRas G12R
T2 construct: Biotinylated KRas (corresponding to amino acids 1-169, produced at Accelegan Inc.); biotin (biotinylated); purchased Accelegan Inc
T2 sequence (P01116 1-169 isoform P01116-2 G12R): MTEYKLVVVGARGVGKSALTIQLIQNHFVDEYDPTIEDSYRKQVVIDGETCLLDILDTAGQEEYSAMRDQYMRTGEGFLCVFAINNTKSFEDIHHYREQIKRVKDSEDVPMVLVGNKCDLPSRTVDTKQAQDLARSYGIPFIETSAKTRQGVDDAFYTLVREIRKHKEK

KRas^G12V = molecular target: T3, KRas^G12V (Homo sapiens, UniProt P01116, G12V); assay: KRas binding assay (TR-FRET tracer displacement), KRas G12V
T3 construct: Biotinylated KRas (corresponding to amino acids 1-169, produced at Accelegan Inc.); biotin (biotinylated); purchased Accelegan Inc
T3 sequence (P01116 1-169 isoform P01116-2 G12V): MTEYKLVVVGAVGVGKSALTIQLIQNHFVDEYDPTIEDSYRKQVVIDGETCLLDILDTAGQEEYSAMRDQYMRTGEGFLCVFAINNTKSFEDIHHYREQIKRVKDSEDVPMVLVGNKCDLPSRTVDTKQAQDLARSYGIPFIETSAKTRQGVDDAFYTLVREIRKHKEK

[2] = tested on: KRas-mediated phosphorylation of ERK in A549 cells; assay: Inhibition of KRas-mediated phosphorylation of ERK (Cisbio HTRF pERK), A549 cells; type: cell-based; details: Homo sapiens, HTRF pERK
In short: as §1

[3] = tested on: KRas-mediated phosphorylation of ERK in AsPC-1 cells; assay: Inhibition of KRas-mediated phosphorylation of ERK (Cisbio HTRF pERK), AsPC-1 cells; type: cell-based; details: Homo sapiens, ASPC1, AsPC-1 cells; HTRF pERK
In short: (§2)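 Signal read by HTRF (d2/Cryptate antibody pair, 2 hr room-temperature incubation on lysate). Cells: 6,000 per well, 3 hr compound exposure. Titration: 10 uM highest, 3-fold, 10 points.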

[4] = tested on: KRas-mediated phosphorylation of ERK in H460 cells; assay: Inhibition of KRas-mediated phosphorylation of ERK (Cisbio HTRF pERK), H460 cells; type: cell-based; details: Homo sapiens, NCI-H460, HTRF pERK
In short: as §2

[5] = tested on: KRas-mediated phosphorylation of ERK in H727 cells; assay: Inhibition of KRas-mediated phosphorylation of ERK (Cisbio HTRF pERK), H727 cells; type: cell-based; details: Homo sapiens, NCI-H727, H727 cells; HTRF pERK
In short: as §2

[6] = tested on: KRas-mediated phosphorylation of ERK in PSN1 cells; assay: Inhibition of KRas-mediated phosphorylation of ERK (Cisbio HTRF pERK), PSN1 cells; type: cell-based; details: Homo sapiens
In short: (§3)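 HTRF pERK read-out; 6,000 cells/well, RPMI_10% FBS, overnight 37° C./5% CO2; 4 h covered incubation at RT before reading.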

[7] = tested on: KRas-mediated phosphorylation of ERK in H358 cells; assay: Inhibition of KRas-mediated phosphorylation of ERK (Cisbio HTRF pERK), H358 cells; type: cell-based; details: Homo sapiens, NCI-H358, HTRF pERK
In short: as §2

[8] = tested on: KRas-mediated phosphorylation of ERK in MKN1 cells; assay: Inhibition of KRas-mediated phosphorylation of ERK (Cisbio HTRF pERK), MKN1 cells; type: cell-based; details: Homo sapiens, MKN-1
In short: as §3

T1 sequence (P01116 1-169 isoform P01116-2 G12D): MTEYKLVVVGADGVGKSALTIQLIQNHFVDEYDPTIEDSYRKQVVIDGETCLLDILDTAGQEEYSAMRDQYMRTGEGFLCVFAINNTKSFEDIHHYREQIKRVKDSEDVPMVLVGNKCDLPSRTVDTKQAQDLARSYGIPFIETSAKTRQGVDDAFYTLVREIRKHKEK

| SMILES | IC50 (KRas^G12D) [nM] | IC50 [1] [nM] | IC50 (KRas^G12R) [nM] | IC50 (KRas^G12V) [nM] | IC50 [2] [nM] | IC50 [3] [nM] | IC50 [4] [nM] | IC50 [5] [nM] | IC50 [6] [nM] | IC50 [7] [nM] | IC50 [8] [nM] |
| --- | --- | --- | --- | --- | --- | --- | --- | --- | --- | --- | --- |
| CCc1c(F)ccc2cc(O)cc(-c3ncc4c(N5CCC[C@@](C)(O)C5)nc(OC[C@]56CCCN5[C@H](COC)CC6)nc4c3F)c12 [Example 885, (R)-1-(7-(8-ethyl-7-fluoro-3-hydroxynaphthalen-1-yl)-8-fluoro-2-(((3S,7aR)-3-(methoxymethyl)tetrahydro-1H-pyrrolizin-7a(5H)-yl)methoxy)pyrido[4,3-d]pyrimidin-4-yl)-3-methylpiperidin-3-ol] | < 2 | 16 | < 2 | < 2 | 30 | 14 | 8 | 39 | 1320 | 7 | 5 |
| CCc1c(F)ccc2cc(O)cc(-c3ncc4c(N5CCC[C@@](C)(O)C5)nc(OC[C@@]56CCCN5[C@@H](COC)CC6)nc4c3F)c12 [Example 886, (R)-1-(7-(8-ethyl-7-fluoro-3-hydroxynaphthalen-1-yl)-8-fluoro-2-(((3R,7aS)-3-(methoxymethyl)tetrahydro-1H-pyrrolizin-7a(5H)-yl)methoxy)pyrido[4,3-d]pyrimidin-4-yl)-3-methylpiperidin-3-ol] | 2 | 59 | 4 | 2 | 73 | 40 | 27 | 135 | 2560 | 18 | 22 |
| CCc1c(F)ccc2cc(O)cc(-c3ncc4c(N5CCOCC6(CNC(=O)N6)C5)nc(OC[C@@]56CCCN5C[C@H](F)C6)nc4c3F)c12 (stereo partly drawn) [Example 898, 10-(7-(8-ethyl-7-fluoro-3-hydroxynaphthalen-1-yl)-8-fluoro-2-(((2R,7aS)-2-fluorotetrahydro-1H-pyrrolizin-7a(5H)-yl)methoxy)pyrido[4,3-d]pyrimidin-4-yl)-7-oxa-1,3,10-triazaspiro[4.6]undecan-2-one] | < 2 | 1010 | < 2 | < 2 | 355 | 250 | 252 | 836 | > 10000 | 56 | 196 |
| CCc1c(F)ccc2cc(O)cc(-c3ncc4c(N5CCC[C@@](C)(O)C5)nc(OC[C@@]56CCCN5[C@H](COCC5CCCC5)CC6)nc4c3F)c12 [Example 904, (R)-1-(2-(((3S,7aS)-3-((cyclopentylmethoxy)methyl)tetrahydro-1H-pyrrolizin-7a(5H)-yl)methoxy)-7-(8-ethyl-7-fluoro-3-hydroxynaphthalen-1-yl)-8-fluoropyrido[4,3-d]pyrimidin-4-yl)-3-methylpiperidin-3-ol] | < 2 | 167 | < 2 | < 2 | 112 | 30 | 53 | 121 | 2510 | 21 | 4 |

The next lines start with the values.

| IC50 (KRas^G12D) [nM] | IC50 [1] [nM] | IC50 (KRas^G12R) [nM] | IC50 (KRas^G12V) [nM] | IC50 [2] [nM] | IC50 [3] [nM] | IC50 [4] [nM] | IC50 [5] [nM] | IC50 [6] [nM] | IC50 [7] [nM] | IC50 [8] [nM] | SMILES |
| --- | --- | --- | --- | --- | --- | --- | --- | --- | --- | --- | --- |
| 53 | 772 | 12 | 7 | 822 | 1170 | 211 | 252 | > 10000 | 95 | 94 | CCc1c(F)ccc2cc(O)cc(-c3ncc4c(N5CC6CCC(C5)C65OCCO5)nc(OC[C@@]56CCCN5C[C@H](F)C6)nc4c3F)c12 [Example 883, 5-ethyl-6-fluoro-4-(8-fluoro-2-(((2R,7aS)-2-fluorotetrahydro-1H-pyrrolizin-7a(5H)-yl)methoxy)-4-(3-azaspiro[bicyclo[3.2.1]octane-8,2′-[1,3]dioxolan]-3-yl)pyrido[4,3-d]pyrimidin-7-yl)naphthalen-2-ol] |
| 4 | 188 | 5 | < 2 | 365 | 600 | 134 | 129 | > 10000 | 24 | 55 | CCc1c(F)ccc2cc(O)cc(-c3ncc4c(N5CC6CCC(C(=O)NC)(C6)C5)nc(OC[C@@]56CCCN5C[C@H](F)C6)nc4c3F)c12 (stereo partly drawn) [Example 889, 3-(7-(8-ethyl-7-fluoro-3-hydroxynaphthalen-1-yl)-8-fluoro-2-(((2R,7aS)-2-fluorotetrahydro-1H-pyrrolizin-7a(5H)-yl)methoxy)pyrido[4,3-d]pyrimidin-4-yl)-N-methyl-3-azabicyclo[3.2.1]octane-1-carboxamide] |
| 22 | 568 | 9 | 6 | 658 | 621 | 150 | 295 | > 10000 | 382 | 73 | CCc1c(F)ccc2cc(O)cc(-c3ncc4c(N5CC6CCC(COC)(C6)C5)nc(OC[C@@]56CCCN5C[C@H](F)C6)nc4c3F)c12 (stereo partly drawn) [Example 891, 5-ethyl-6-fluoro-4-(8-fluoro-2-(((2R,7aS)-2-fluorotetrahydro-1H-pyrrolizin-7a(5H)-yl)methoxy)-4-(1-(methoxymethyl)-3-azabicyclo[3.2.1]octan-3-yl)pyrido[4,3-d]pyrimidin-7-yl)naphthalen-2-ol] |
| 120 | 992 | 26 | 26 | 2140 | 2180 | 382 | 1630 | > 10000 | 960 | 174 | CCc1c(F)ccc2cc(O)cc(-c3ncc4c(N5CC6CCC(COC(=O)N(C)C)(C6)C5)nc(OC[C@@]56CCCN5C[C@H](F)C6)nc4c3F)c12 (stereo partly drawn) [Example 892, (3-(7-(8-ethyl-7-fluoro-3-hydroxynaphthalen-1-yl)-8-fluoro-2-(((2R,7aS)-2-fluorotetrahydro-1H-pyrrolizin-7a(5H)-yl)methoxy)pyrido[4,3-d]pyrimidin-4-yl)-3-azabicyclo[3.2.1]octan-1-yl)methyl dimethylcarbamate] |
| < 2 | 79 | < 2 | < 2 | 73 | 27 | 42 | 119 | 905 | 11 | 11 | CCc1c(F)ccc2cc(O)cc(-c3ncc4c(N5CCC[C@@](C)(O)C5)nc(OC[C@@]56CCCN5[C@H](COC(C)C)CC6)nc4c3F)c12 [Example 895, (R)-1-(7-(8-ethyl-7-fluoro-3-hydroxynaphthalen-1-yl)-8-fluoro-2-(((3S,7aS)-3-(isopropoxymethyl)tetrahydro-1H-pyrrolizin-7a(5H)-yl)methoxy)pyrido[4,3-d]pyrimidin-4-yl)-3-methylpiperidin-3-ol] |
| 99 | 1400 | 20 | 60 | 873 | 2450 | 368 | 2420 | > 10000 | 623 | 19 | CCc1c(F)ccc2cc(O)cc(-c3ncc4c(N5CC6CCC(CO)(C5)C6(F)F)nc(OC[C@@]56CCCN5C[C@H](F)C6)nc4c3F)c12 (stereo partly drawn) [Example 901, 4-(4-(8,8-difluoro-1-(hydroxymethyl)-3-azabicyclo[3.2.1]octan-3-yl)-8-fluoro-2-(((2R,7aS)-2-fluorotetrahydro-1H-pyrrolizin-7a(5H)-yl)methoxy)pyrido[4,3-d]pyrimidin-7-yl)-5-ethyl-6-fluoronaphthalen-2-ol] |
| 297 | 6310 | 94 | 394 | 2610 | 4150 | 1350 | 7440 | > 10000 | 2700 | 1140 | CCc1c(F)ccc2cc(O)cc(-c3ncc4c(N5CC6CCC(C(=O)N(C)C)(C5)C6(F)F)nc(OC[C@@]56CCCN5C[C@H](F)C6)nc4c3F)c12 (stereo partly drawn) [Example 905, 3-(7-(8-ethyl-7-fluoro-3-hydroxynaphthalen-1-yl)-8-fluoro-2-(((2R,7aS)-2-fluorotetrahydro-1H-pyrrolizin-7a(5H)-yl)methoxy)pyrido[4,3-d]pyrimidin-4-yl)-8,8-difluoro-N,N-dimethyl-3-azabicyclo[3.2.1]octane-1-carboxamide] |
